biological target: T1, human PDE10A full length (Homo sapiens, UniProt Q9Y233); assay: PDE10A Scintillation Proximity Assay (SPA), human PDE10A full length assay; format: biochemical; settings: 50 nM cGMP + 50 nM [3H]-cGMP, 20 minutes at room temperature, read-out: PDE10A inhibition IC50
T1 construct: purchased Enzo Life Science, Lausen, Switzerland SE-534
Method: The following test was carried out in order to determine the activity of the compounds of the present invention. PDE10 activity of the compounds of the present invention was determined using a Scintillation Proximity Assay (SPA)-based method similar to the one previously described (Fawcett, L. et al., Proc Natl Acad Sci USA (2000) 97(7):3702-3707).
The human PDE10A full length assay was performed in 96-well micro titer plates. The reaction mixture of 50 μl contained 20 mM HEPES pH=7.5/10 mM MgCl2/0.05 mg/ml BSA (Sigma cat. #A-7906), 50 nM cGMP (Sigma, cat. #G6129) and 50 nM [^3H]-cGMP (GE Healthcare, cat. #TRK392 S.A. 13.2Ci/mmol), 3.75 ng/well PDE10A enzyme (Enzo Life Science, Lausen, Switzerland cat #SE-534) with or without a specific test compound. A range of concentrations of the potential inhibitor was used to generate data for calculating the concentration of inhibitor resulting in 50% of the effect (e.g. IC50, the concentration of the competitor inhibiting PDE10A activity by 50%). Non-specific activity was tested without the enzyme. The reaction was initiated by the addition of the substrate solution (cGMP and [^3H]-cGMP) and allowed to progress for 20 minutes at room temperature. The reaction was terminated by adding 25 μl of YSi-SPA scintillation beads (GE Healthcare, cat. #RPNQ0150) in 18 mM zinc sulphate solution (stop reagent). After 1 h under shaking, the plate was centrifuged one minute at 170 g to allow beads to settle. Afterwards, radioactive counts were measured on a Perkin Elmer TopCount Scintillation plate reader.

T1 sequence (Q9Y233 1-779 isoform Q9Y233-1): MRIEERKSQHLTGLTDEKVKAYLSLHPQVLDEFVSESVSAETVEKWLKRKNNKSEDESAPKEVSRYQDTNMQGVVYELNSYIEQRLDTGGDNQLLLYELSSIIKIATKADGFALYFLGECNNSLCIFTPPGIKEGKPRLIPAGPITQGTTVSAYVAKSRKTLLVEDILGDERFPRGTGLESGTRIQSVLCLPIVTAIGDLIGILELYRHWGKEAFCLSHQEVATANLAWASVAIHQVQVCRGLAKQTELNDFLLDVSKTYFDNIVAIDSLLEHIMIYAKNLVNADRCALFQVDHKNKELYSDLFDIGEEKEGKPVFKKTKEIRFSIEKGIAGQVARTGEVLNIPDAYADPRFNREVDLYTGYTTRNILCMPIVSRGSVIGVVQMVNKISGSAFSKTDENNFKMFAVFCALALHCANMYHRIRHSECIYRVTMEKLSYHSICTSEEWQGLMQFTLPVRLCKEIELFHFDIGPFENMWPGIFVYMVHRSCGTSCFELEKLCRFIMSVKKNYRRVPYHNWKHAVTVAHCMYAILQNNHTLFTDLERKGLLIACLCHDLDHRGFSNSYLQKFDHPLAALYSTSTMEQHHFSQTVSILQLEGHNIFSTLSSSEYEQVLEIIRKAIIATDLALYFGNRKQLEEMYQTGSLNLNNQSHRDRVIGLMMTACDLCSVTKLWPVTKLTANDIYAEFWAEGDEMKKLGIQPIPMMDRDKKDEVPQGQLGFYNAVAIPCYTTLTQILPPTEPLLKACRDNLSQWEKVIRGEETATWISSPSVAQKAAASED

Question: Which IC50 does the source give for `CN(c1nc2cc(NC(=O)c3c(C(=O)O)cnn3C)ccn2n1)C1CC1` [Example 125, 5-[2-(Cyclopropyl-methyl-amino)-[1,2,4]triazolo[1,5-a]pyridin-7-ylcarbamoyl]-1-methyl-1H-pyrazole-4-carboxylic acid] here?
Answer: Its IC50 is 54 nM.

Question: `CN(C(=O)c1cnn(C)c1C(=O)Nc1ccn2nc(-c3cccnc3)nc2c1)C1CC1` [Example 55, 2-Methyl-2H-pyrazole-3,4-dicarboxylic acid 4-(cyclopropyl-methyl-amide)3-[(2-pyridin-3-yl-[1,2,4]triazolo[1,5-a]pyridin-7-yl)-amide]] was tested. Which IC50 did it give?
Answer: Its IC50 is 0.45 nM.

Question: Which IC50 does the source give for `Cn1ncc(C(=O)N2CCOCC2)c1C(=O)Nc1ccn2nc(-c3ccccc3OCCF)nc2c1` [Example 131, 2-Methyl-4-(morpholine-4-carbonyl)-2H-pyrazole-3-carboxylic acid {2-[2-(2-fluoro-ethoxy)-phenyl]-[1,2,4]triazolo[1,5-a]pyridin-7-yl}-amide] here?
Answer: The IC50 was 0.9 nM.

Question: With `Cn1ncc(C(=O)N2CCOCC2)c1C(=O)Nc1ccn2nc(-c3cccc(OCF)c3)nc2c1` [Example 82, 2-Methyl-4-(morpholine-4-carbonyl)-2H-pyrazole-3-carboxylic acid [2-(3-fluoromethoxy-phenyl)-[1,2,4]triazolo[1,5-a]pyridin-7-yl]-amide] as the compound, how does the IC50 read?
Answer: The IC50 was 0.78 nM.

Question: How did the IC50 turn out when `CCN(C)C(=O)c1cnn(C)c1C(=O)Nc1ccn2nc(-c3ccccc3OC)nc2c1` [Example 98, 2-Methyl-2H-pyrazole-3,4-dicarboxylic acid 4-(ethyl-methyl-amide)3-{[2-(2-methoxy-phenyl)-[1,2,4]triazolo[1,5-a]pyridin-7-yl]-amide}] was run?
Answer: Its IC50 is 0.67 nM.

Question: `Cn1ncc(C(=O)N2CCC2)c1C(=O)Nc1ccn2nc(-c3cccc(OCCF)c3)nc2c1` [Example 90, 4-(Azetidine-1-carbonyl)-2-methyl-2H-pyrazole-3-carboxylic acid {2-[3-(2-fluoro-ethoxy)-phenyl]-[1,2,4]triazolo[1,5-a]pyridin-7-yl}-amide] was tested. Which IC50 did it give?
Answer: The IC50 was 1.02 nM.

Question: With `CN(CC(F)(F)F)C(=O)c1cnn(C)c1C(=O)Nc1ccn2nc(N3CCOCC3)nc2c1` [Example 54, 2-Methyl-2H-pyrazole-3,4-dicarboxylic acid 4-[methyl-(2,2,2-trifluoro-ethyl)-amide]3-[(2-morpholin-4-yl-[1,2,4]triazolo[1,5-a]pyridin-7-yl)-amide]] as the compound, how does the IC50 read?
Answer: The IC50 was 80.5 nM.

Question: How did the IC50 turn out when `Cn1ncc(C(=O)N2CC(F)C2)c1C(=O)Nc1ccn2nc(N3CCOCC3)nc2c1` [Example 43, 4-(3-Fluoroazetidine-1-carbonyl)-1-methyl-N-(2-morpholino-[1,2,4]triazolo[1,5-a]pyridin-7-yl)-1H-pyrazole-5-carboxamide] was run?
Answer: The IC50 was 3.77 nM.

Question: Which IC50 does the source give for `COCCN(CCOC)C(=O)c1cnn(C)c1C(=O)Nc1ccn2nc(-c3ccccc3)nc2c1` [Example 6, N4,N4-bis(2-methoxyethyl)-1-methyl-N5-(2-phenyl-[1,2,4]triazolo[1,5-a]pyridin-7-yl)-1H-pyrazole-4,5-dicarboxamide] here?
Answer: The IC50 was 0.43 nM.

Question: How did the IC50 turn out when `Cn1ncc(C(=O)N2CCOCC2)c1C(=O)Nc1ccn2nc(-c3cccc(O)c3)nc2c1` [Example 80, 2-Methyl-4-(morpholine-4-carbonyl)-2H-pyrazole-3-carboxylic acid [2-(3-hydroxy-phenyl)-[1,2,4]triazolo[1,5-a]pyridin-7-yl]-amide] was run?
Answer: Its IC50 is 0.41 nM.

Question: With `CN(C)C(=O)c1cnn(C)c1C(=O)Nc1ccn2nc(-c3cccc(OCCF)c3)nc2c1` [Example 85, 2-Methyl-2H-pyrazole-3,4-dicarboxylic acid 4-dimethylamide 3-({2-[3-(2-fluoro-ethoxy)-phenyl]-[1,2,4]triazolo[1,5-a]pyridin-7-yl}-amide)] as the compound, how does the IC50 read?
Answer: The IC50 was 0.73 nM.

Question: With `CN(C)C(=O)c1nc2cc(NC(=O)c3c(C(=O)N4CCC4)cnn3C)ccn2n1` [Example 62, 7-{[4-(Azetidine-1-carbonyl)-2-methyl-2H-pyrazole-3-carbonyl]-amino}-[1,2,4]triazolo[1,5-a]pyridine-2-carboxylic acid dimethylamide] as the compound, how does the IC50 read?
Answer: The IC50 was 112 nM.

Question: For `CN(CCF)C(=O)c1cnn(C)c1C(=O)Nc1ccn2nc(N3CCOCC3)nc2c1` [Example 21, N4-(2-Fluoroethyl)-N4,1-dimethyl-N5-(2-morpholino-[1,2,4]triazolo[1,5-a]pyridin-7-yl)-1H-pyrazole-4,5-dicarboxamide], which IC50 is on record?
Answer: The IC50 was 26.5 nM.

Question: Which IC50 does the source give for `Cn1ncc(C(=O)N2CCC2)c1C(=O)Nc1ccn2nc(-c3cccnc3F)nc2c1` [Example 110, 4-(Azetidine-1-carbonyl)-2-methyl-2H-pyrazole-3-carboxylic acid [2-(2-fluoro-pyridin-3-yl)-[1,2,4]triazolo[1,5-a]pyridin-7-yl]-amide] here?
Answer: The IC50 was 4.66 nM.

Question: How did the IC50 turn out when `COc1cccc(-c2nc3cc(NC(=O)c4c(C(=O)N(C)C)cnn4C)ccn3n2)c1` [Example 78, 2-Methyl-2H-pyrazole-3,4-dicarboxylic acid 4-dimethylamide 3-{[2-(3-methoxy-phenyl)[1,2,4]triazolo[1,5-a]pyridin-7-yl]-amide}] was run?
Answer: The IC50 was 0.32 nM.

Question: For `CN(CCF)c1nc2cc(NC(=O)c3c(C(=O)N4CCCC4)cnn3C)ccn2n1` [Example 115, 2-Methyl-4-(pyrrolidine-1-carbonyl)-2H-pyrazole-3-carboxylic acid {2-[(2-fluoro-ethyl)-methyl-amino]-[1,2,4]triazolo[1,5-a]pyridin-7-yl}-amide], which IC50 is on record?
Answer: The IC50 was 2.29 nM.

Question: Which IC50 does the source give for `CCN(C)C(=O)c1cnn(C)c1C(=O)Nc1ccn2nc(-c3cccnc3)nc2c1` [Example 116, 2-Methyl-2H-pyrazole-3,4-dicarboxylic acid 4-(ethyl-methyl-amide)3-[(2-pyridin-3-yl-[1,2,4]triazolo[1,5-a]pyridin-7-yl)-amide]] here?
Answer: The IC50 was 1.11 nM.

Question: `COCCN(C)C(=O)c1cnn(C)c1C(=O)Nc1ccn2nc(-c3ccccc3OC)nc2c1` [Example 99, 2-Methyl-2H-pyrazole-3,4-dicarboxylic acid 4-[(2-methoxy-ethyl)-methyl-amide]3-{[2-(2-methoxy-phenyl)-[1,2,4]triazolo[1,5-a]pyridin-7-yl]-amide}] was tested. Which IC50 did it give?
Answer: Its IC50 is 0.74 nM.

Question: `CN(C)C(=O)c1cnn(C)c1C(=O)Nc1ccn2nc(-c3cccc(OCF)c3)nc2c1` [Example 86, 2-Methyl-2H-pyrazole-3,4-dicarboxylic acid 4-dimethylamide 3-{[2-(3-fluoromethoxy-phenyl)-[1,2,4]triazolo[1,5-a]pyridin-7-yl]-amide}] was tested. Which IC50 did it give?
Answer: Its IC50 is 0.6 nM.

Question: For `Cn1ncc(C(=O)N2CCC2)c1C(=O)Nc1ccn2nc(-c3ccccc3OCCF)nc2c1` [Example 130, 4-(Azetidine-1-carbonyl)-2-methyl-2H-pyrazole-3-carboxylic acid {2-[2-(2-fluoro-ethoxy)-phenyl]-[1,2,4]triazolo[1,5-a]pyridin-7-yl}-amide], which IC50 is on record?
Answer: The IC50 was 0.34 nM.

Question: Which IC50 does the source give for `COc1cccc(-c2nc3cc(NC(=O)c4c(C(=O)N5CCC5)cnn4C)ccn3n2)c1` [Example 75, 4-(Azetidine-1-carbonyl)-2-methyl-2H-pyrazole-3-carboxylic acid [2-(3-methoxy-phenyl)-[1,2,4]triazolo[1,5-a]pyridin-7-yl]-amide] here?
Answer: Its IC50 is 0.31 nM.

Question: `Cn1ncc(C(=O)N2CCCC2)c1C(=O)Nc1ccn2nc(N3CCOCC3)nc2c1` [Example 42, 1-Methyl-N-(2-morpholino-[1,2,4]triazolo[1,5-a]pyridin-7-yl)-4-(pyrrolidine-1-carbonyl)-1H-pyrazole-5-carboxamide] was tested. Which IC50 did it give?
Answer: Its IC50 is 5.15 nM.

Question: With `CN(c1nc2cc(NC(=O)c3c(C(=O)N4CCC4)cnn3C)ccn2n1)C1CC1` [Example 127, 4-(Azetidine-1-carbonyl)-2-methyl-2H-pyrazole-3-carboxylic acid [2-(cyclopropyl-methyl-amino)-[1,2,4]triazolo[1,5-a]pyridin-7-yl]-amide] as the compound, how does the IC50 read?
Answer: The IC50 was 0.73 nM.

Question: For `Cn1ncc(C(=O)N2CCC2)c1C(=O)Nc1ccn2nc(C(=O)NCCC(F)(F)F)nc2c1` [Example 33, 7-(4-(Azetidine-1-carbonyl)-1-methyl-1H-pyrazole-5-carboxamido)-N-(3,3,3-trifluoropropyl)-[1,2,4]triazolo[1,5-a]pyridine-2-carboxamide], which IC50 is on record?
Answer: The IC50 was 28.6 nM.

Question: Which IC50 does the source give for `CN(CCF)C(=O)c1cnn(C)c1C(=O)Nc1ccn2nc(-c3ccccc3)nc2c1` [Example 26, 2-Methyl-2H-pyrazole-3,4-dicarboxylic acid 4-[(2-fluoro-ethyl)-methyl-amide]3-[(2-phenyl-[1,2,4]triazolo[1,5-a]pyridin-7-yl)-amide]] here?
Answer: The IC50 was 0.43 nM.

Question: Which IC50 does the source give for `Cn1ncc(C(=O)N2CCC2)c1C(=O)Nc1ccn2nc(-c3cccc(OCF)c3)nc2c1` [Example 91, 4-(Azetidine-1-carbonyl)-2-methyl-2H-pyrazole-3-carboxylic acid [2-(3-fluoromethoxy-phenyl)-[1,2,4]triazolo[1,5-a]pyridin-7-yl]-amide] here?
Answer: The IC50 was 0.86 nM.

Question: Which IC50 does the source give for `COc1ccccc1-c1nc2cc(NC(=O)c3c(C(=O)N(C)C)cnn3C)ccn2n1` [Example 97, 2-Methyl-2H-pyrazole-3,4-dicarboxylic acid 4-dimethylamide 3-{[2-(2-methoxy-phenyl)-[1,2,4]triazolo[1,5-a]pyridin-7-yl]-amide}] here?
Answer: The IC50 was 0.31 nM.
